Test results as given in patent US10308649B2, “Compounds and methods to suppress autoimmune response” (Oregon State University, priority 2014, dated 2019).

Assays:
[1] = system: B6D2F1 host mice; assay: 15-day GVHD model in B6D2F1 host mice; assay type: in vivo, mouse
Protocol: GVHD was established using donor cells obtained from wild type or AhR-deficient mice. B6D2F1 host mice were injected with wild type (WT) or AhR^−/− splenocytes to initiate the graft versus host (GVH) response. Due to a limited number of AhR-deficient mice available, whole splenocytes rather than purified T cells were used to initiate the GVH response. Host mice were given AHRL1 or vehicle treatments daily for 15 days. The vehicle consisted of a mixture of 6.7% anisole and peanut oil. A single loading dose of 10 mg/kg AHRL1 was given at the time of donor cell injection and a maintenance dose of 2 mg/kg AHRL1 was given every day thereafter until termination of the experiment on day 15.
The progression of GVHD in the host mice was monitored and a clinical GVHD pathology score was calculated. At termination of the 15-day study, each animal was evaluated and given a clinical GVHD pathology score based on five criteria: changes in weight, posture, activity, fur texture, and mortality. The clinical GVHD pathology score was assessed on a scale of 0 to 3, where 0 was normal, 1 was moderate morbidity, 2 was severe morbidity, and 3 was death.
In a separate study, the effect of AHRL1 on donor cell engraftment was examined and directly compared with the effect of TCDD. B6D2F1 host mice in groups of 6 were injected with splenocytes from C57Bl/6 mice to initiate the GVH response, and treated with AHRL1 or vehicle daily for 15 days. The vehicle consisted of a mixture of 6.7% anisole and peanut oil. A single loading dose of 10 mg/kg AHRL1 was given at the time of donor cell injection and a maintenance dose of 2 mg/kg AHRL1 was given every day thereafter until termination of the experiment on day 15. 15 μg/kg of TCDD was given to an additional group of 6 mice on day 0 as a positive control. […] The donor cells were identified in the host spleen as the H-2D^d negative population.

[2] = in humans; cited from earlier work
[3] = system: CYP1A1; assay: CYP1A1 mRNA induction in Hepa-1 cells; conditions: 1 nM
Protocol: The levels of CYP1A1 expression were determined by measuring CYP1A1 messenger ribonucleic acid (mRNA) levels.

## Clc1cc2c(cc1Cl)Oc1cc(Cl)c(Cl)cc1O2 [TCDD, 2,3,7,8-tetrachlorodibenzo-p-dioxin]
[1]; day 15, AHRL1 10 mg/kg then 2 mg/kg daily, TCDD 15 μg/kg day 0
  total number of donor CD4+ and CD8+ T cells engrafted in the host spleen: reduced total number
[1]; host spleen, day 15
  percentage and number of activated donor CD8+ T cells expressing a CTL phenotype (CD8+CD44hiCD45RBlow): reduce the percentage and number
[1]; host spleen, day 15, vs vehicle
  percentage and number of host B cells (CD19+ cells): increased percentage and number
[2]
  half-life: approximately seven
[3]
  CYP1A1 mRNA induction: comparable level of induction
